From the OligoGym collection come the findings set out here.

These antisense oligonucleotides have a phosphorothioate backbone; sugars and methylation of C are not fully specified.

Some targets named below: NCOA1; MAP4K4; CHUK.
Holding throughout (conditions): ASO
Note: test concentration or dose not given here.

With AAAAGTGGTTATTCAGTC, the remaining target (mRNA or protein) (fraction of control) in the data set with NCOA1 amounted to 0.62. In turn, AAACAAAATGGGACCCCTTA had a remaining target (mRNA or protein) (fraction of control) in the data set with MAP4K4 of 0.56. AAAGTGGTTATTCAGTCA had a remaining target (mRNA or protein) (fraction of control) with NCOA1 of 0.71. In the data set with NCOA1, AAGTGGTTATTCAGTCAG gave a remaining target (mRNA or protein) (fraction of control) of 0.74. As for AAGTTTCACCTCTGCATTCT, in the data set with MAP4K4, the remaining target (mRNA or protein) (fraction of control) was 0.26.

In turn, AATAAAACCAACGGCATGTT registered a remaining target (mRNA or protein) (fraction of control) with MAP4K4 of 0.81. For ACCTCCTGAAGAGTTAGC, the remaining target (mRNA or protein) (fraction of control) in the data set with NCOA1 worked out at 0.58. ACTTCCTCCTCTTCTTCCTC showed a remaining target (mRNA or protein) (fraction of control) with MAP4K4 of 0.41. Regarding AGACCCGGGCTGGGATCCTG, in the data set with MAP4K4, the remaining target (mRNA or protein) (fraction of control) turned out to be 0.92. In the case of AGAGGGCCGCTGCATGTAAT, in the data set with MAP4K4, the remaining target (mRNA or protein) (fraction of control) was determined as 0.36. On to AGAGTAGACTCACCAGGCAC, for which the remaining target (mRNA or protein) (fraction of control) with MAP4K4 is 0.75. Regarding AGCTGTCAATGTCACTAA, the remaining target (mRNA or protein) (fraction of control) with NCOA1 amounted to 0.43.

Sequence AGGTGGCATCTGGGTTCTCA displayed a remaining target (mRNA or protein) (fraction of control) with MAP4K4 of 0.46. For the sequence AGTGGTTATTCAGTCAGT, the remaining target (mRNA or protein) (fraction of control) with NCOA1 was 0.67. In the data set with NCOA1, ATGATGATGAAGCCGAAT yielded a remaining target (mRNA or protein) (fraction of control) of 0.93. In the data set with NCOA1, ATGCCAACAGGAGCAGTT came in with a remaining target (mRNA or protein) (fraction of control) of 0.51. With ATGTAAGCGATCCAGTCTTC, the remaining target (mRNA or protein) (fraction of control) with MAP4K4 is 0.67. Still for that read-out and setting: the result for ATGTCGACCCTTATAGACTT reads 0.39. The sequence CACACAGAATCTCAGAGTTA returned a remaining target (mRNA or protein) (fraction of control) in the data set with MAP4K4 of 0.61. For CACCACAGATGTCACTGTTG, the remaining target (mRNA or protein) (fraction of control) with MAP4K4 worked out at 0.45. Regarding CACTGCATTTTCCAGGCGCT, the remaining target (mRNA or protein) (fraction of control) with MAP4K4 is 0.49. Still for that read-out and setting: the value for CAGTTACAAGGAATTCCAAG was 0.93.

As for CATGATGATGAAGCCGAA, in the data set with NCOA1, the remaining target (mRNA or protein) (fraction of control) came out at 0.7.

CCATCCAAGTGACCAGTTTC came in with a remaining target (mRNA or protein) (fraction of control) with MAP4K4 of 0.29.

As for CCGCTTCTGTCTCTCTGCCA, the remaining target (mRNA or protein) (fraction of control) with MAP4K4 is 0.25. CCTCATCTTCATAGCACACC: the remaining target (mRNA or protein) (fraction of control) with MAP4K4 was 0.82. CCTCTCCTCTTCTTCTTTGC yielded a remaining target (mRNA or protein) (fraction of control) with MAP4K4 of 0.64. In the data set with MAP4K4, CCTGCCTGGCTATTCTGCTG had a remaining target (mRNA or protein) (fraction of control) of 0.43. Turning to CCTGCTGCAGTCTCAGGAAA, the remaining target (mRNA or protein) (fraction of control) with MAP4K4 was found to be 0.37. The sequence CCTTGACTACTTGATGAG returned a remaining target (mRNA or protein) (fraction of control) in the data set with NCOA1 of 0.77. Take CCTTGATATCCCGGTGAATC: the remaining target (mRNA or protein) (fraction of control) in the data set with MAP4K4 stood at 0.23. With CCTTTAAAAGTGGTTATT, the remaining target (mRNA or protein) (fraction of control) with NCOA1 is no less than 1.

Regarding CGAATTCCACCACACTGG, the remaining target (mRNA or protein) (fraction of control) with NCOA1 came out at 0.69. The same measure, in the same setting: the result for CTACGACCTGAAGAATGG reads 0.76. On to CTCTGCAGGGCGGGATGCAC, for which the remaining target (mRNA or protein) (fraction of control) in the data set with MAP4K4 was no less than 1. For CTCTTGTTCCATTCTCTT, the remaining target (mRNA or protein) (fraction of control) in the data set with NCOA1 is 0.61. Still for that read-out and setting: the result for CTGAAAGTCTGTCATTGT reads 0.95; that for CTGAGGACTGGAGAACTG, 0.44.

CTGAGGATTGATTCCAGT showed a remaining target (mRNA or protein) (fraction of control) in the data set with NCOA1 of 0.67.

For the sequence CTTCCTCACTAAATCTTC, in the data set with NCOA1, the remaining target (mRNA or protein) (fraction of control) is no less than 1. CTTCCTCTTCATCCTCAGTG yielded a remaining target (mRNA or protein) (fraction of control) in the data set with MAP4K4 of 0.34. The sequence CTTTAAAAGTGGTTATTC showed a remaining target (mRNA or protein) (fraction of control) with NCOA1 of no less than 1. GAACCATCTGCACATGATTT returned a remaining target (mRNA or protein) (fraction of control) with MAP4K4 of 0.48. Turning to GACTGAGTCTGGCGGACGAT, the remaining target (mRNA or protein) (fraction of control) in the data set with MAP4K4 stood at 0.84. In the data set with MAP4K4, GACTTGGATGATGATCTCAC had a remaining target (mRNA or protein) (fraction of control) of 0.86.

In turn, GAGCTAATACACTGGTCT displayed a remaining target (mRNA or protein) (fraction of control) in the data set with NCOA1 of 0.55. The sequence GCATGGAATCCAGCACAGGA returned a remaining target (mRNA or protein) (fraction of control) with MAP4K4 of 0.69. Sequence GCCGTACATCTTCCACTGCT gave a remaining target (mRNA or protein) (fraction of control) with MAP4K4 of 0.45.

Sequence GCCTTGATTTATTTTGGAGT returned a remaining target (mRNA or protein) (fraction of control) with MAP4K4 of 0.92.

Sequence GCGTTGCTTGTTGTGGTG showed a remaining target (mRNA or protein) (fraction of control) with NCOA1 of 0.43. On to GCTCCTTTCCTGCTGCGGTG, for which the remaining target (mRNA or protein) (fraction of control) in the data set with MAP4K4 stood at 0.37. Sequence GCTCTCATTGGATGCATGTC displayed a remaining target (mRNA or protein) (fraction of control) in the data set with MAP4K4 of 0.39. In the data set with MAP4K4, GGACTCGTCAGCCCCTTCCT came in with a remaining target (mRNA or protein) (fraction of control) of 0.16.

In the data set with MAP4K4, GGATCATTGTGAAGTATTTT gave a remaining target (mRNA or protein) (fraction of control) of 0.84. Take GGATTGACCGAGGGATTT: in the data set with NCOA1, the remaining target (mRNA or protein) (fraction of control) came out at 0.52. On to GGTCTGAGCTCTGCTGGC, for which the remaining target (mRNA or protein) (fraction of control) with NCOA1 was found to be 0.24.

The sequence GGTTATTCAGTCAGTAGC yielded a remaining target (mRNA or protein) (fraction of control) with NCOA1 of 0.57. For GTCCCCGCCTACCAGATT, the remaining target (mRNA or protein) (fraction of control) with NCOA1 turned out to be 0.56. GTGGTTATTCAGTCAGTA came in with a remaining target (mRNA or protein) (fraction of control) with NCOA1 of 0.56. Same read-out and setting: the value for GTTCATTCCTGGCATCTG was 0.66. For the sequence TAAAAGTGGTTATTCAGT, in the data set with NCOA1, the remaining target (mRNA or protein) (fraction of control) was 0.79. Consider TCATGATGATGAAGCCGA, for which, in the data set with NCOA1, the remaining target (mRNA or protein) (fraction of control) was 0.58. On the same count and under the same terms, the result for TCATTAATTCCTCCTGAT reads 0.48; that for TCCATCTGTTCTTTCTTT, 0.84; that for TCCCCGTTTGAACTGGTA, 0.63.

TCCGTGCTTGATGCCAGT came in with a remaining target (mRNA or protein) (fraction of control) with NCOA1 of 0.34. TCCTTTAAAAGTGGTTAT: in the data set with NCOA1, the remaining target (mRNA or protein) (fraction of control) is 0.93. In the data set with CHUK, TCTCCTCCAGAACAGTAT showed a remaining target (mRNA or protein) (fraction of control) of no less than 1.

In the data set with CHUK, TCTCGATGTATAATTTTG had a remaining target (mRNA or protein) (fraction of control) of no less than 1. In the data set with CHUK, TGAGCACACGGTCCTGAC returned a remaining target (mRNA or protein) (fraction of control) of 0.79. In the data set with CHUK, TGCCCAGCCGCTCCCGCA gave a remaining target (mRNA or protein) (fraction of control) of 0.85. As to TGCTTGGTCATAAAGGAT, the remaining target (mRNA or protein) (fraction of control) with NCOA1 was determined as 0.74. Still for that read-out and setting: the result for TGGTTATTCAGTCAGTAG reads 0.71. On to TGTGTAAGGCTTATTCTC, for which, in the data set with CHUK, the remaining target (mRNA or protein) (fraction of control) was determined as 0.91. Regarding TGTTCCAGAGATTCCATC, in the data set with CHUK, the remaining target (mRNA or protein) (fraction of control) is no less than 1. TTAAAAGTGGTTATTCAG yielded a remaining target (mRNA or protein) (fraction of control) with NCOA1 of 0.79.

TTAAACTACAAAGGCTAT registered a remaining target (mRNA or protein) (fraction of control) in the data set with CHUK of no less than 1. Still for that read-out and setting: the value for TTACTGAGGGCCACTTCC was 0.48.

Sequence TTAGCAGGGTCGGATGAA had a remaining target (mRNA or protein) (fraction of control) with NCOA1 of 0.4.

Sequence TTCAGCCCACACTTTACG showed a remaining target (mRNA or protein) (fraction of control) in the data set with CHUK of 0.58. Consider TTCCCGATGCTGGTACAG, for which the remaining target (mRNA or protein) (fraction of control) with CHUK came to 0.63. For the sequence TTCCTTTAAAAGTGGTTA, the remaining target (mRNA or protein) (fraction of control) with NCOA1 turned out to be 0.71. Sequence TTCTTGAGAACCAGTATT registered a remaining target (mRNA or protein) (fraction of control) with CHUK of no less than 1. In the data set with NCOA1, TTTAAAAGTGGTTATTCA gave a remaining target (mRNA or protein) (fraction of control) of 0.74.
